The test concerns the target FabB (Escherichia coli, UniProt P0A953). In words: NMR wLOGSY assay to evaluate FabB binding. Also noted: species or system E. coli.

Sequence of FabB (P0A953 whole entry): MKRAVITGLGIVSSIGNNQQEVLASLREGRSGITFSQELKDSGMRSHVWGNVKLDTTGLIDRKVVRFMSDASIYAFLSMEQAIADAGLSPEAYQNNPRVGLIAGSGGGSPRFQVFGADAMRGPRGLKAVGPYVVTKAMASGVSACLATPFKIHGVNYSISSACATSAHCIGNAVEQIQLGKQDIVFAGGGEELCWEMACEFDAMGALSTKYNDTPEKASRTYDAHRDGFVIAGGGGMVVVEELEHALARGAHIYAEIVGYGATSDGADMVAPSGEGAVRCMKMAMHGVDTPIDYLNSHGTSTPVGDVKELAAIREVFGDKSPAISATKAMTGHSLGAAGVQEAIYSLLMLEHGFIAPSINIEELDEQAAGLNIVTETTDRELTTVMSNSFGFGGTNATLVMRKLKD

As for `O=c1oc2cc(Cl)ccc2n1CN(CC1CCOC1)C1CC1` (stereo not shown) [compound 1], the “FabB binding in NMR wLOGSY assay” value was “exhibited binding”.
